# Laboratory results published in publication PMC11969009 (Nature Communications, 2025).
# “And” between values parts separate entries of the source, which are not always exact repeats. Equal values may be shown once. Read-outs that look alike come from different tables or passages of the source.
# What was measured:
# SARS-CoV PLpro = SARS-CoV PLpro (Severe acute respiratory syndrome coronavirus, UniProt P0C6X7); experiment: biochemical; design: inhibition of SARS-CoV PLpro, UbRh dose-response replicate value: unit: %
# 229E PL2pro = 229E PL2pro (Human coronavirus 229E, UniProt P0C6X1); experiment: biochemical; design: inhibition of 229E PL2pro, UbRh dose-response replicate value: unit: %
# 229E PL2pro, sequence (P0C6X1 1599-1905 limits assumed): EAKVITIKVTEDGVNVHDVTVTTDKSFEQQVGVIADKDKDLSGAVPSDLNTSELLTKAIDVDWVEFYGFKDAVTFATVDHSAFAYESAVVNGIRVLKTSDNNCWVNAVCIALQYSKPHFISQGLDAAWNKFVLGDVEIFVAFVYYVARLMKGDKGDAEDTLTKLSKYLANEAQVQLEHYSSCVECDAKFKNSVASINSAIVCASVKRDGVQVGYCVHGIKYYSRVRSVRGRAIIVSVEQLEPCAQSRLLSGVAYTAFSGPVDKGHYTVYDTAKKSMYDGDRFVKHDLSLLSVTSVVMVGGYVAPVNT
# [1] = system: SARS-CoV-2 clinical isolate VIC001; experiment: microbe, parasite or virus in culture; type: cell-based
# USP21 = USP21 (Homo sapiens, UniProt Q9UK80); type: biochemical
# USP21, sequence (Q9UK80 whole entry): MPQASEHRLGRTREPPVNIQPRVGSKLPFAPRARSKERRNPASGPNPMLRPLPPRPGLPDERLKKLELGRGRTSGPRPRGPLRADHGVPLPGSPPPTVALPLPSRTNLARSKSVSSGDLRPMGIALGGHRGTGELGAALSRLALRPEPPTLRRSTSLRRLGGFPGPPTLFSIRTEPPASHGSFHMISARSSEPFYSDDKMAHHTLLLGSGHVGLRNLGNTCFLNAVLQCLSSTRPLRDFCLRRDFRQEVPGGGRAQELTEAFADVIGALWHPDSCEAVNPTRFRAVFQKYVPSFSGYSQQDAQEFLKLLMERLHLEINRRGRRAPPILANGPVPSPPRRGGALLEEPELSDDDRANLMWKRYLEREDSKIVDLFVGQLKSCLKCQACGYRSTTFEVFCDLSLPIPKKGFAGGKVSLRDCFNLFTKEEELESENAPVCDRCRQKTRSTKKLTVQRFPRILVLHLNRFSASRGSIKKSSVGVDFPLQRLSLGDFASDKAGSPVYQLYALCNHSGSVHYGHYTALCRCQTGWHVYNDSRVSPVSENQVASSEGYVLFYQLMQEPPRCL
# NL63 PL2pro = NL63 PL2pro (Human coronavirus NL63, UniProt P0C6X5); experiment: biochemical; design: inhibition of NL63 PL2pro, UbRh dose-response replicate value: unit: %
# NL63 PL2pro, sequence (P0C6X5 1578-1876 limits assumed): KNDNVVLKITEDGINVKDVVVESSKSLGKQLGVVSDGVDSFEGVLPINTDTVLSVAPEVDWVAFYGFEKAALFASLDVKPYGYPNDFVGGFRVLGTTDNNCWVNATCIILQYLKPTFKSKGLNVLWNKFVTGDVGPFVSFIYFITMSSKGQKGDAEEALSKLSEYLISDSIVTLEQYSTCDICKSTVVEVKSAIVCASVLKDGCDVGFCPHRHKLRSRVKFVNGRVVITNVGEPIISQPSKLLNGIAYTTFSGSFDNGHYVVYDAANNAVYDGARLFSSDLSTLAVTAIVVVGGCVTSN
# OC43 PLpro = OC43 PLpro (Human coronavirus OC43, UniProt P0C6X6); type: biochemical; design: unit not given here
# OC43 PLpro, sequence (P0C6X6 1561-1872 limits assumed): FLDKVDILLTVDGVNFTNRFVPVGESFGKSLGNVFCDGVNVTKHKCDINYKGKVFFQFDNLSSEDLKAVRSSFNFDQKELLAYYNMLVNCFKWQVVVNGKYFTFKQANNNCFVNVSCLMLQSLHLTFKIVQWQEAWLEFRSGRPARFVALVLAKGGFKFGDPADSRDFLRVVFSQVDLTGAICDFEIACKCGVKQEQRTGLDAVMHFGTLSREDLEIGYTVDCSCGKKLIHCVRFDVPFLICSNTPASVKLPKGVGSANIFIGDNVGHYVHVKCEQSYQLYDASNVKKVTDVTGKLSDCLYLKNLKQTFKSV
compound,measurement,setting,value
CO/N=C(/c1ccc2cc(OC)ccc2c1)[C@@H]1CCCN([C@H]2CC[C@@H](O)CC2)C1 [WEHI-P4],IC50,SARS-CoV PLpro,22 nM
same,"inhibition of SARS-CoV PLpro, UbRh dose-response replicate value",SARS-CoV PLpro,99.5179 and 99.8695 and 99.888 and 100.41 and 101.206 and 100.652 and 97.9154 and 99.4293 and 98.8906 and 95.7801 and 96.2197 and 96.0782 and 88.7276 and 90.1243 and 89.7578
same,"inhibition of SARS-CoV PLpro, UbRh dose-response replicate value",SARS-CoV PLpro; Conc 0.00498 µM,14.7599 and 17.411 and 20.7686
same,inhibition at 0.00498 µM,"SARS-CoV PLpro; Conc 0.00498 µM, read-out: inhibition of SARS-CoV PLpro, UbRh dose-response replicate value",16.2%
same,"inhibition of SARS-CoV PLpro, UbRh dose-response replicate value",SARS-CoV PLpro; Conc 0.0149 µM,37.3989 and 38.0308 and 36.4129
same,inhibition at 0.0149 µM,"SARS-CoV PLpro; Conc 0.0149 µM, read-out: inhibition of SARS-CoV PLpro, UbRh dose-response replicate value",35.6%
same,"inhibition of SARS-CoV PLpro, UbRh dose-response replicate value",SARS-CoV PLpro; Conc 0.0448 µM,69.6451 and 70.3349 and 71.2781
same,inhibition at 0.0448 µM,"SARS-CoV PLpro; Conc 0.0448 µM, read-out: inhibition of SARS-CoV PLpro, UbRh dose-response replicate value",67.2%
same,"inhibition of SARS-CoV PLpro, UbRh dose-response replicate value",SARS-CoV PLpro; Conc 3.63 µM,99.5331 and 99.9857 and 99.4982
same,inhibition at 3.63 µM,"SARS-CoV PLpro; Conc 3.63 µM, read-out: inhibition of SARS-CoV PLpro, UbRh dose-response replicate value",99.4%
same,"inhibition of SARS-CoV PLpro, UbRh dose-response replicate value",SARS-CoV PLpro; Conc 98 µM,99.3819 and 99.8238 and 100.106
same,inhibition at 98 µM,"SARS-CoV PLpro; Conc 98 µM, read-out: inhibition of SARS-CoV PLpro, UbRh dose-response replicate value",99.7%
same,inhibition at […],"SARS-CoV PLpro; read-out: inhibition of SARS-CoV PLpro, UbRh dose-response replicate value",100% (2×) and 98.8% and 95.9% and 88.8%
same,"inhibition of 229E PL2pro, UbRh dose-response replicate value",229E PL2pro,-3.299 and -1.103 and -1.357 and -1.684 and -5 and -3.221 and 0.1898 and -0.4439 and 15.3408 and -2.102 and -1.619 and -0.7174 and -1.603 and -0.8771 and -3.61 and -1.122 and -1.443 and -0.5265 and -4.511 and -0.9697
same,"inhibition of 229E PL2pro, UbRh dose-response replicate value",229E PL2pro; Conc 0.00498 µM,-2.024 and 3.205 and 24.2526 and 1.229
same,"inhibition of 229E PL2pro, UbRh dose-response replicate value",229E PL2pro; Conc 0.0149 µM,-0.08917 and 0.9383 and 15.3791 and -0.8809
same,"inhibition of 229E PL2pro, UbRh dose-response replicate value",229E PL2pro; Conc 0.0448 µM,-0.8342 and -1.338 and 5.491 and -0.5647
same,"inhibition of 229E PL2pro, UbRh dose-response replicate value",229E PL2pro; Conc 3.63 µM,-3.66 and -1.559 and -7.103 and -2.2201
same,"inhibition of 229E PL2pro, UbRh dose-response replicate value",229E PL2pro; Conc 98 µM,0.4544 and 1.371 and 3.91 and 5.222
same,EC50,"[1]; Severe acute respiratory syndrome coronavirus 2, Vero, read-out: Antiviral EC50 (plaque assay)",400 nM
same,EC50,"[1]; Severe acute respiratory syndrome coronavirus 2, Vero, read-out: Antiviral EC50 (plaque assay) with Pgp inhibitor",306 nM
same,EC50,[1]; read-out: Antiviral EC50 (plaque assay),410 nM
same,"inhibition of USP21, UbRh dose-response replicate value",USP21,-14.237 and -11.9773 and -10.1399 and -17.0381 and -16.4868 and -21.6825 and -18.261 and -18.781 and -13.7423 and -13.1772 and -6.117 and -6.284 and -18.5884 and -21.057 and -7.715 and -13.3224
same,"inhibition of USP21, UbRh dose-response replicate value",USP21; Conc 0.000249 µM,-14.4284 and -17.3988 and 5.209 and -15.2664
same,"inhibition of USP21, UbRh dose-response replicate value",USP21; Conc 0.000745 µM,-25.0632 and -19.3083 and -9.965 and -17.0572
same,"inhibition of USP21, UbRh dose-response replicate value",USP21; Conc 0.00675 µM,-16.8226 and -16.7878 and -5.942 and -9.8797
same,"inhibition of USP21, UbRh dose-response replicate value",USP21; Conc 0.545 µM,-6.303 and -14.0881 and -12.3002 and -21.4576
same,"inhibition of USP21, UbRh dose-response replicate value",USP21; Conc 1.64 µM,-4.137 and -7.939 and -11.2839 and -6.868
same,"inhibition of USP21, UbRh dose-response replicate value",USP21; Conc 4.9 µM,-8.882 and -9.138
same,IC50,NL63 PL2pro,52000 nM
same,"inhibition of NL63 PL2pro, UbRh dose-response replicate value",NL63 PL2pro,29.2044 and 27.2154 and 12.8016 and 14.0355 and 13.7224 and -0.9824 and 3.459 and 0.1256 and -0.3351 and 1.574 and 1.516 and -0.1016 and -0.4149 and 0.8753 and 0.8707 and 2.0171 and 6.071
same,"inhibition of NL63 PL2pro, UbRh dose-response replicate value",NL63 PL2pro; Conc 0.00498 µM,2.403 and 7.259 and 5.7694 and -2.335
same,"inhibition of NL63 PL2pro, UbRh dose-response replicate value",NL63 PL2pro; Conc 0.0149 µM,1.231 and 5.289 and 2.0908 and -3.1147
same,"inhibition of NL63 PL2pro, UbRh dose-response replicate value",NL63 PL2pro; Conc 0.0448 µM,0.2539 and -0.387 and 1.95 and -0.1081
same,"inhibition of NL63 PL2pro, UbRh dose-response replicate value",NL63 PL2pro; Conc 3.63 µM,5.122 and 3.572 and 1.225 and -0.02217
same,"inhibition of NL63 PL2pro, UbRh dose-response replicate value",NL63 PL2pro; Conc 98 µM,57.8171 and 54.6906 and 55.1157
same,inhibition at 98 µM,"NL63 PL2pro; Conc 98 µM, read-out: inhibition of NL63 PL2pro, UbRh dose-response replicate value",58.4%
same,inhibition at […],"NL63 PL2pro; read-out: inhibition of NL63 PL2pro, UbRh dose-response replicate value",34.7% and 15.8%
same,"inhibition of OC43 PLpro, UbRh dose-response replicate value",OC43 PLpro,-2.257 and 2.5807 and 4.868 and -0.1188 and -1.486 and 1.4475 and 10.2923 and 5.639 and 2.747 and 1.253 and 10.74 and 6.439 and 0.2359 and 1.058 and 1.648 and 0.7875 and 3.338 and 4.936 and 12.7203 and 5.2479
same,"inhibition of OC43 PLpro, UbRh dose-response replicate value",OC43 PLpro; Conc 0.00498 µM,-1.019 and 4.2451 and 4.799 and 3.755
same,"inhibition of OC43 PLpro, UbRh dose-response replicate value",OC43 PLpro; Conc 0.0149 µM,3.285 and -5.104 and 7.176 and 0.6631
same,"inhibition of OC43 PLpro, UbRh dose-response replicate value",OC43 PLpro; Conc 0.0448 µM,1.599 and 3.82 and 6.435 and 3.684
